Patent publication US4908364A, “Substituted 3-phenyl-7H-thiazol[3,2-b][1,2,4]-triazin-7-ones” (Hoechst Aktiengesellschaft, priority 1987, dated 1990)
Like-named read-outs stand apart in the source and are kept apart here.

How the values were obtained:
lymphocytes [1] = assay: Immune activity of spleen lymphocytes towards mitogens in collagen arthritis; assay type: in vivo, male Wistar rats; settings: Example 1: 12 mg/kg p.o.
Procedure: (§1) In this experiment, arthritis was induced in male Wistar rats using type II collagen, which was obtained by standard methods of Miller and Rhodes (Meth. Enzymol. 82 (1982) p. 33) from the nasal septum of the calf and, mixed with Freund's incomplete adjuvant, was injected intradermally into the animals. This immunization process was repeated 7 days later. 20 days after the initial immunization, the affected rats were divided into groups each comprising 7 animals, which received the particular test substance or the pure vehicle (control group) orally once daily in the subsequent 20-day treatment phase. On day 41 of the experiment, i.e. one day after the final administration of substance, the increase in volume of both rear paws was determined.
The immune status of lymphocytes is also disturbed sensitively in this model of collagen arthritis.

[2] = test system: mitochondrial lipid peroxidation; assay: In-vitro inhibition of lipid peroxidation, mitochondria (thiobarbituric acid test); assay type: biochemical; settings: mitochondria from the rat liver
Text: (§2) Further convincing evidence of the pronounced protective action of the compounds according to the invention against aggressive oxygen radicals is provided by the thiobarbituric acid test of A. Ottolenghi (Arch. Biochem. Biophys. 79 (1959) pp. 355-363). Using this in-vitro method, the affect on microsomal and mitochondrial lipid peroxidation by antioxidatively active preparations can be determined from the malonodialdehyde produced on oxidative degredation of membrane-bound, polyunsaturated fatty acids.
(§3) Here too, the compounds of the formula I exerted a strong inhibitory action.

[3] = test system: microsomal lipid peroxidation; assay: In-vitro inhibition of lipid peroxidation, microsomes (thiobarbituric acid test); assay type: biochemical; settings: microsomes from the rat liver
Text: as §2, §3

[4] = test system: Arthritis induced by type II collagen; assay: Arthritis induced by type II collagen (paw volume); assay type: in vivo, male Wistar rats; settings: for inhibition of the increase in paw volume, collagen arthritis: oral once daily, 20-day treatment, naproxen at the same dosage
Procedure: as §1

lymphocytes [5] = assay: Stimulation of suppressed immune response of lymphocytes towards mitogens in adjuvant arthritis; assay type: in vivo, rat; settings: oral, Example 1 at 3.15 and 6.3 mg/kg, naproxen in doses up to 25 mg/kg
5-lipoxygenase = assay: Inhibition of 5-lipoxygenase in isolated polymorphonuclear granulocytes; assay type: cell-based, human; settings: concentration range between 10^-5 and 10^-6 mol/l, pre-incubation 15 minutes
Procedure: The inhibitory action of the compounds according to the invention on 5-lipoxygenase-catalysed degredation of arachidonic acid was investigated,as usual, in in-vitro experiments on isolated polymorphonuclear human granulocytes. To this purpose, cells stimulated by calcium ionophor A 23 187 (Calbiochem GmbH, Frankfurt/Main, FRG, Biochemical and Immunochemical Catalog 1985, p. 284) were incubated with ^14 C-labeled arachidonic acid, and the major radioactive degredation products of arachidonic acid, 5-hydroxyeicosatetraenoic acid (5-HETE) and leukotriene […] (LTB4), which has a particularly strong proinflammatory action, formed after 15 minutes at 37° C. by biotransformation were determined quantitatively with the aid of a radio monitor after separation by high-pressure liquid chromatography (HPLC).

[6] = test system: Adriamycin-induced inflammation; assay: Adriamycin-induced inflammation; assay type: in vivo, male Sprague-Dawley rats; settings: for Increase in paw volume: 72 hours, control 430; for Protective action in %: * significance p < 0.05; for protective effect against tissue destruction induced by Adriamycin: oral
Text: According to current opinion, aggressive oxygen radicals, which are formed to excess during the chronic inflammation process and, as highly toxic inflammation mediators themselves, perpetually maintain the connective tissue destruction which proceeds via an irreversible lipid peroxidation of the cell membranes, are permanently involved in the progressive course, caused by a multitude of factors, of rheumatoid arthritis and other inflammatory disorders. As a result, antioxidatively active pharmaceuticals having the ability to deactivate these extremely cytotoxic oxygen radicals should permit specific engagement in the chronic course of the inflammation. A suitable animal model for this type of tissue destruction caused by oxygen radicals is Adriamycin (doxorubicin) induced inflammation in rats. The investigations were carried out by the method of D. M. Siegel et al. (Inflammation 4 (1980) p. 233) on male Sprague-Dawley rats having a body weight between 200 and 230 g in groups of 7 animals each, which received 0.1 mg of Adriamycin, dissolved in 0.1 ml of a 0.9% strength sodium chloride solution, by subcutaneous injection into the left rear paw. The increase in paw volume was determined by plethysmographic measurement 72 hours thereafter as a measure of the degree of inflammation. The test preparations were administered orally in 1% strength aqueous carboxymethylcellulose suspension once daily on 4 successive days, starting with the day of Adriamycin injection.

[7] = Acute gastral ulcerogenity; set-up: species or system male Sprague-Dawley rats; settings: rat, in vivo, po
Procedure: The investigation took place in each case on 10 male Sprague-Dawley rats in which the gastric mucous membrane had been sensitized by hunger stress. The body weight of the animals was between 200 and 300 g. While allowing free access to the drinking water, the feed was withdrawn 48 hours before administration of the test preparations until sacrifice of the animals. The rats were sacrificed 24 hours after oral administration of the substance, and the stomachs were removed, cleaned under running water and inspected for mucous membrane lesions. All macroscopically visible lesions were regarded as ulcers. The number of animals having ulcers was determined for each dose, and the UD50 values, i.e. the doses at which lesions were caused in 50% of the animals, were calculated from this number by the method of Litchfield and Wilcoxon (J. Pharmacol. Exp. Ther. 96 (1949) p. 99).

in vivo = settings: mouse, ip; for LD50 at 168 h: read-out: Acute toxicity LD50
Procedure: The LD50 values were determined by a standard method from the mortality occurring within 7 days in NMRI (Naval Medical Research Institute) mice (6 animals per dose) after a single intraperitoneal (i.p.) administration.

Adjuvant arthritis = Adjuvant arthritis (paw volume increase); assay type: in vivo, male rats of a Wistar-Lewis strain; settings: for ED50: Rattus norvegicus, po, read-out: ED50 in adjuvant arthritis; for Adjuvant arthritis (% inhibition at 50 mg/kg p.o.): rat, 50 mg/kg p.o. once daily, day 1 to day 5, reduction in increase in paw volume vs control
Procedure: The investigations were carried out by the method of Pearson (Arthrit. Rheum. 2 (1959) p. 44). The experimental animals used were male rats of a Wistar-Lewis strain having a body weight between 130 and 200 g. The compounds to be tested were administered orally (p.o.) once daily from day 1 to day 5 of the experiment in doses of 50 mg per kg of body weight. The animals of a control group received only the vehicle. Each preparation and control group comprised 8 animals. The criterion used to determine an action was the percentage reduction in the increase in paw volume compared to that of the untreated control group.

Arthus reaction = assay: Active Arthus reaction; assay type: in vivo, female and male Sprague-Dawley rats; settings: oral
Procedure: The experimental animals used were female and male Sprague-Dawley rats having a body weight between 80 and 100 g; they were injected subcutaneously into the tail root with 0.5 ml of an emulsion of pertussis vaccine and ovalbumin in paraffin oil. After two weeks, the rats were divided into groups of 8 animals each. The respective test substance or the pure vehicle (positive control) were administered orally 24 hours and one hour before induction of the Arthus reaction by injecting 0.1 ml of a 0.4% strength ovalbumin solution into the right rear paw. Sodium chloride solution was injected into the left paw. A group of non-sensitized animals (negative control) was likewise treated with ovalbumin in order to be able to exclude non-specific reactions to the protein. The measurement parameter used for the action of the preparation was the inhibition of the increase in paw volume compared to that of a sensitized, but untreated control group (positive control) 4 hours after ovalbumin provocation, when the swelling reaches its maximum.

[8] = NMRI mice, single i.p. administration, mortality within 7 days

Q: For `CC(C)(C)c1cc(-c2csc3nc(=O)cnn23)cc(C(C)(C)C)c1O` [Example 1, 3-(3,5-Di-tert.butyl-4-hydroxyphenyl)-7H-thiazolo[3,2-b][1,2,4]triazin-7-one], which “effect on immune function of lymphocytes in collagen arthritis” value (lymphocytes [1]) is on record?
A: The value was “completely normalized the immune function of both T and B lymphocytes”.

Q: And the IC50 [2]?
A: Its IC50 is 3000 nM.

Q: And the IC50 [3]?
A: Its IC50 is 600 nM.

Q: What about the minimal effective dose ([4]; Rattus norvegicus, po, collagen arthritis, p.o., read-out: dose from which inhibition of the increase in paw volume was statistically significant) of the same molecule?
A: Its minimal effective dose is at least 25 mg/kg.

Q: What about the “inhibition of the increase in paw volume, collagen arthritis” value [4] of the same molecule?
A: The value was “dose-dependent inhibition of the increase in paw volume”.

Q: And the “normalization of the immune reactivity of lymphocytes towards mitogens” value (lymphocytes [5])?
A: The value was “substantial normalization of the immune reactivity”.

Q: And the “inhibition of formation of 5-HETE” value (5-lipoxygenase)?
A: Its value is “significantly inhibited”.

Q: And the “inhibition of formation of LTB4” value (5-lipoxygenase)?
A: Its value is “significantly inhibited”.

Q: What about the “Increase in paw volume” value ([6]; 20 mg/kg p.o.) of the same molecule?
A: The value was 220 µL.

Q: What about the “Protective action in %” value ([6]; 20 mg/kg p.o.) of the same molecule?
A: Its value is 49%.

Q: What about the “Increase in paw volume” value ([6]; 40 mg/kg p.o.) of the same molecule?
A: Its value is 200 µL.

Q: What about the “Protective action in %” value ([6]; 40 mg/kg p.o.) of the same molecule?
A: The value was 54%.

Q: And the “Increase in paw volume” value ([6]; 80 mg/kg p.o.)?
A: Its value is 10 µL.

Q: What about the “Protective action in %” value ([6]; 80 mg/kg p.o.) of the same molecule?
A: Its value is 98%.

Q: What about the “protective effect against tissue destruction induced by Adriamycin” value [6] of the same molecule?
A: Its value is “strong, dose-dependent protective effect”.

Q: What about the TD50 at 24 h [7] of the same molecule?
A: The TD50 at 24 h was over 400 mg/kg.

Q: And the selectivity ratio [7]?
A: The selectivity ratio was over 36.7.

Q: What about the selectivity ratio (in vivo; LD50 (mice i.p.) / ED50 (adjuvant arthritis), read-out: therapeutic range, quotient LD50/ED50) of the same molecule?
A: The selectivity ratio was over 110.

Q: What about the LD50 at 168 h (in vivo; [8]) of the same molecule?
A: Its LD50 at 168 h is over 1200 mg/kg.

Q: What about the ED50 (Adjuvant arthritis) of the same molecule?
A: The ED50 was 10.9 mg/kg.

Q: What about the “Adjuvant arthritis (% inhibition at 50 mg/kg p.o.)” value (Adjuvant arthritis) of the same molecule?
A: Its value is 67%.

Q: Which TD50 at 24 h [7] does the source give for `Cc1cc(-c2csc3nc(=O)cnn23)cc(C(C)(C)C)c1O` [Example 2, 3-(3-Tert.butyl-5-methyl-4-hydroxyphenyl)-7H-thiazolo[3,2-b][1,2,4]triazin-7-one] here?
A: The TD50 at 24 h was over 400 mg/kg.

Q: What about the LD50 at 168 h (in vivo; [8]) of the same molecule?
A: The LD50 at 168 h was over 1200 mg/kg.

Q: What about the “Adjuvant arthritis (% inhibition at 50 mg/kg p.o.)” value (Adjuvant arthritis) of the same molecule?
A: Its value is 41%.

Q: Which TD50 at 24 h [7] does the source give for `CC(C)(C)c1cc(-c2csc3nc(=O)c(CO)nn23)cc(C(C)(C)C)c1O` [Example 3, 3-(3,5-Di-tert.butyl-4-hydroxyphenyl)-6-hydroxymethyl-7H-thiazolo[3,2-b][1,2,4]triazin-7-one] here?
A: The TD50 at 24 h was over 200 mg/kg.

Q: And the LD50 at 168 h (in vivo; [8])?
A: Its LD50 at 168 h is over 1200 mg/kg.

Q: And the “Adjuvant arthritis (% inhibition at 50 mg/kg p.o.)” value (Adjuvant arthritis)?
A: Its value is 41%.

Q: With `Cc1nn2c(-c3cc(C(C)(C)C)c(O)c(C(C)(C)C)c3)csc2nc1=O` [Example 6] as the molecule, how does the TD50 at 24 h [7] read?
A: Its TD50 at 24 h is over 200 mg/kg.

Q: And the LD50 at 168 h (in vivo)?
A: The LD50 at 168 h was over 1200 mg/kg.

Q: And the “Adjuvant arthritis (% inhibition at 50 mg/kg p.o.)” value (Adjuvant arthritis)?
A: Its value is 50%.

Q: For `CCCc1nn2c(-c3cc(C(C)(C)C)c(O)c(C(C)(C)C)c3)csc2nc1=O` [Example 9], which TD50 at 24 h [7] is on record?
A: Its TD50 at 24 h is over 200 mg/kg.

Q: And the LD50 at 168 h (in vivo)?
A: The LD50 at 168 h was over 1200 mg/kg.

Q: And the “Adjuvant arthritis (% inhibition at 50 mg/kg p.o.)” value (Adjuvant arthritis)?
A: Its value is 45%.

Q: For `COc1ccc2cc(C(C)C(=O)O)ccc2c1` (stereo not shown) [Naproxen, 2-(6-methoxy-2-naphthyl)-propionic acid, reference compound], which “effect on immune function of lymphocytes in collagen arthritis” value (lymphocytes [1]) is on record?
A: Its value is “no effect”.

Q: What about the “inhibition of the increase in paw volume, collagen arthritis” value [4] of the same molecule?
A: The value was “only non-significant inhibition values”.

Q: And the “normalization of the immune reactivity of lymphocytes towards mitogens” value (lymphocytes [5])?
A: The value was “ineffective”.

Q: And the “protective effect against tissue destruction induced by Adriamycin” value [6]?
A: Its value is “ineffective”.

Q: And the “effect on Arthus reaction” value (Arthus reaction)?
A: The value was “ineffective”.

Q: And the ED50 (Adjuvant arthritis)?
A: Its ED50 is 17.5 mg/kg.

Q: What about the “Adjuvant arthritis (% inhibition at 50 mg/kg p.o.)” value (Adjuvant arthritis) of the same molecule?
A: Its value is 55%.
